Test results from patent US7029863B2, “Cell culture system for determining the cholesterol efflux potential for serum” (The Children's Hospital of Philadelphia, priority 2001, dated 2006).

How the values were obtained:
Format in all cases: cell-based
[1] = system: W138VA13 human embryonic lung fibroblasts; assay: Cell cholesterol efflux to supplemented human serum, untreated W138VA13 fibroblasts; details: human serum supplemented with increasing levels of the substance; 4 hour incubation; low SR-BI and ABCA1 expression; FIG. 1C
Protocol: (§1) FIG. 1C is a graph of the percentage of efflux of cell cholesterol after a four hour incubation period of W138VA13 human embryonic lung fibroblasts with serum supplemented with HDL3 and serum supplemented with Apo AI. Numbers on X axis represent the fold increase of HDL3 or Apo AI with the X axis of 1 being the unsupplemented serum.
(§2) FIGS. 1A–1F illustrate that the expression of SR-BI and ABCA1 independently in cultured cells can be used to detect cell cholesterol efflux to human sera with different levels of apolipoprotein AI, high density lipoprotein (HDL) or high density lipoprotein3 (HDL3). […] The control and supplemented serum samples were then diluted in tissue culture medium and incubated with the indicated cell systems; the efflux of cell cholesterol was measured after a 4 hour incubation period.
FIG. 1C is a graph of the percentage of efflux of cell cholesterol after a four hour incubation period of W138VA13 human embryonic lung fibroblasts with serum supplemented with HDL3 and serum supplemented with Apo AI. FIG. 1C illustrates that W138VA13 human embryonic lung fibroblasts have low expression levels of both proteins and cell cholesterol efflux is unresponsive to either type of serum supplementation.

[2] = system: W138VA13 human embryonic lung fibroblasts transfected with SR-BI with ABCA1 upregulated; assay: Cell cholesterol efflux to supplemented human serum, W138VA13 fibroblasts with SR-BI transfected and ABCA1 upregulated; details: human serum supplemented with increasing levels of the substance; 4 hour incubation; FIG. 1F
Protocol: (§3) Numbers on X axis represent the fold increase of HDL3 or Apo AI with the X axis of 1 being the unsupplemented serum.
as §2

[3] = system: J774 mouse macrophages treated with cAMP to upregulate the expression of ABCA1; assay: Cell cholesterol efflux to supplemented human serum, J774 macrophages with ABCA1 upregulated by cAMP; details: human serum supplemented with increasing levels of the substance; 4 hour incubation; FIG. 1B
Protocol: as §1, with “1B” for “1C”, “J774 mouse macrophages treated with cAMP to upregulate the expression of ABCA1” for “W138VA13 human embryonic lung fibroblasts”
For example, in one embodiment of the present invention, an assay to quantitate the contribution of ABCA1 to cellular cholesterol efflux uses a sample of cells, such as transformed mouse macrophages which are grown in monolayers and prelabeled with ^3H-cholesterol. […] The release of the radiolabeled cholesterol is determined after an appropriate incubation time ranging from 1 to 12 hours. The ABCA1 contribution to efflux is determined by subtracting the efflux obtained in ABCA1 negative cultures from that obtained from the ABCA1 positive cultures.
as §2, with “period. […]” for “period.”

[4] = system: W138VA13 human embryonic lung fibroblasts pretreated with 9-cis retanoic acid (9CRA) and 22 hydroxycholesterol to upregulated ABCA1; assay: Cell cholesterol efflux to supplemented human serum, W138VA13 fibroblasts with ABCA1 upregulated; details: human serum supplemented with increasing levels of the substance; 4 hour incubation; FIG. 1E
Protocol: as §3, §2

In the case of “Apo AI: apolipoprotein AI added to human serum in increasing levels”, the “percentage of efflux of cell cholesterol” value [1] is reported as “unresponsive”, the “efflux of cell cholesterol” value [2] is reported as “enhanced efflux” and the “percentage of efflux of cell cholesterol” value [3] is reported as “enhanced cholesterol efflux”. The “percentage of efflux of cell cholesterol” value [4] was “enhanced”.
